Assay: Compound was evaluated for inhibition against Phospholipase A2 of Croatalus adamanteus

Row | Compound | IC50
1 | O=C(/C=C\N(O)C1CCCCC1)c1ccc(F)cc1 | > 1000 µM
2 | CC(=O)ON(C=CC(=O)c1ccc(F)cc1)Cc1ccccc1 [1-(4-fluorophenyl)-3-benzyl-3-acetyloxyamino-propenone] | > 1000 µM
3 | CON(/C=C\C(=O)c1ccc(F)cc1)Cc1ccccc1 [(Z)-3-(Benzyl-methoxy-amino)-1-(4-fluoro-phenyl)-propenone] | > 1000 µM

— BindingDB's records for doi:10.1016/S0960-894X(00)80622-8 (1992)
